The text below walks through data of PMC3863390 (Molecular nutrition & food research, 2012).

Values joined by “and” are separate entries in the source; they are usually repeats but may differ in a detail not shown here. Equal values may be shown once.

In test [1] the test system is human bladder cancer cell lines (HBCCs). The class given is cell-based. The note with it: p>0.8, data not shown.
For test [2], the system named is RT4 cells. Nature of the test: SRB cell viability assay in RT4 cells. The class given is cell-based, human. The note with it: for RT4 cell viability inhibition: 20 μM, 48 hr.
Test [3] has as its system J82 cells. As to the kind of experiment: Cell cycle analysis by flow cytometry, J82. The class given is cell-based, human. The following applies: 20 μM, 48 hr.
The test system of test [4] is RT4 cells. Nature of the test: Cell cycle analysis by flow cytometry, RT4. In kind it is cell-based, human. The following applies: 20 μM, 48 hr.
The test system of test [5] is PARP. Nature of the test: Western blot of PARP cleavage, RT4. The note with it: 20 μM, 48 hr. In kind it is cell-based, human.
For test [6], the system named is PARP. As to the kind of experiment: Western blot of PARP cleavage, UMUC3. The class given is cell-based, human. The following applies: 20 μM, 48 hr.
For test [7], the system named is survivin. As to the kind of experiment: Western blot of survivin expression, UMUC3. In kind it is cell-based, human. The note with it: 20 μM, 48 hr. (Immunoblotting shows a protein as a band on a membrane.)
Test [8] deals with survivin. The note with it: RT4; 20 μM, 48 hr.
For test [9], the system named is Normal human bladder urothelial cells (NHU). As to the kind of experiment: tissue or blood. The class given is cell-based.
Test [10] concerns HER2/neu. Nature of the test: Western blot of HER2/neu expression, RT4. In kind it is cell-based, human. The following applies: 20 μM, 48 hr.
Test [11] has as its system HER2/neu. As to the kind of experiment: Western blot of HER2/neu expression, UMUC3. The class given is cell-based, human. The following applies: 20 μM, 48 hr.
The subject of test [12] is EGFR. As to the kind of experiment: Western blot of EGFR expression, RT4. The note with it: 20 μM, 48 hr. In kind it is cell-based, human.
Test [13] has as its system EGFR. As to the kind of experiment: Western blot of EGFR expression, UMUC3. In kind it is cell-based, human. The note with it: 20 μM, 48 hr.
Another test has as its system UMUC3 cells. As to the kind of experiment: cells. The following applies: Homo sapiens, UMUC3, 48 h, read-out: IC50, cell viability. In kind it is cell-based.
For another test, the system named is UMUC3 xenograft. As to the kind of experiment: UMUC3 xenograft in athymic nude mice. The note with it: 295 μmol/kg/day oral gavage, 2 weeks. The class given is in vivo, mouse.
For test [14], the system named is J82 cells. Nature of the test: SRB cell viability assay in J82 cells. In kind it is cell-based. The note with it: Homo sapiens, J82, 48 h, read-out: IC50, cell viability.
A further test has as its system caspase 3/7. As to the kind of experiment: Apo-ONE caspase-3/7 assay, RT4. In kind it is cell-based, human. The following applies: 10 μM, 48 hr.

For `C[S+]([O-])CCCCN=C=S` (centres unmarked) [R-sulforaphane], the “difference between isomers in inhibitory effects of HBCCs” value in test [1] was “no difference”.

Turning to `C[S@+]([O-])CCCCN=C=S` [S-sulforaphane], in [1], the “difference between isomers in inhibitory effects of HBCCs” value is reported as “no difference”.

In the case of `C=CCN=C=S` [allyl isothiocyanate], the “RT4 cell viability inhibition” value with RT4 cells [2] was 28%.

Regarding `C[S+]([O-])CCCN=C=S` (centres unmarked) [iberin], in the test on RT4 cells [2], the “RT4 cell viability inhibition” value stood at 12%.

Regarding `C[S+]([O-])CCCCN=C=S` (centres unmarked) [sulforaphane], the “increase of cells in the G2/M phase” value in the test on J82 cells [3] worked out at 3 fold. Further, the “increase of cells in the G2/M phase compared to control” value in the test on RT4 cells [4] is on record as 2.6 fold. For the same compound, the figures for the PARP cleavage increase with PARP [5] and with PARP [6] were 2.3 fold and 3.6 fold, respectively. Moreover, in the test on survivin [7], the survivin expression downregulated worked out at 35%. For the same compound, the “decrease in survivin expression” value in the test on survivin [8] is 51% and 44%. The inhibition at 20 µM in test [9] (Homo sapiens, 72 h, read-out: inhibition of NHU) was 62%. Moreover, the “IC50, cell viability” value in test [9] (NHU cells, 72 hr) is “not reached”. The “decrease of HER2/neu expression” value in the test with HER2/neu [10] was determined as 10%. In addition, the HER2/neu downregulated with HER2/neu [11] is 90%. Moreover, the “changes in EGFR expression” value in the test with EGFR [12] was “does not lead to significant changes”. In addition, the “EGFR protein expression downregulated” value in the test on EGFR [13] is on record as 54%. In addition, the IC50 came to 5.66 ± 1.2 µM with UMUC3 cells; 7.7 ± 1.8 µM in the test with J82 cells [14]; 11.2 ± 0.3 µM in the test with RT4 cells [2] (Homo sapiens, RT-4, 48 h, read-out: IC50, cell viability). In addition, in the test on UMUC3 xenograft, the “inhibition of tumor growth rate” value was found to be 42%. Besides, in the test on UMUC3 xenograft (versus vehicle control soy bean oil), the “decrease in final tumor weight” value worked out at 33%. The “RT4 cell viability inhibition” value in the test on RT4 cells [2] is 64%. In addition, in the test with caspase 3/7, the “increase in caspase 3/7 activity compared to control” value is given as 2.5 fold.

What is called inhibition is the percentage by which the read-out fell short of the control. The term IC50 denotes the concentration needed to halve the response being measured.
